pIC50: −log10 of the molar value. Bridge positions count the residues as written; N and C are the ends. Square brackets hold non-standard residues; d marks the D form. Peptide text beside a SMILES is read from it. * marks the point of attachment. ξ: configuration not given here. Bip = N[C@@H](Cc1ccc(-c2ccccc2)cc1)C(=O)O; Ala(2-furyl) = N[C@@H](Cc1ccco1)C(=O)O; Phe(3-Me) = Cc1cccc(C[C@H](N)C(=O)O)c1; Ala(4-THP) = N[C@@H](CC1CCOCC1)C(=O)O; hhPhe = N[C@@H](CCCc1ccccc1)C(=O)O; Abu(4-CN) = N#CCC[C@H](N)C(=O)O; Cha = N[C@@H](CC1CCCCC1)C(=O)O; Thr(3ξ) = CC(O)[C@H](N)C(=O)O; dDab = NCC[C@@H](N)C(=O)O; Carboxymethyl = O=C(O)C*; Orn = NCCC[C@H](N)C(=O)O; Aun = NCCCCCCCCCCC(=O)O; Dab = NCC[C@H](N)C(=O)O

The assay deals with T1, PD-1/PD-L1 interaction (PE-labeled human PD-L1-Ig binding to Jurkat cell line over-expressing human PD-1) (Homo sapiens, UniProt Q15116).
T1 construct: expressed in transfected cells; host or cells: Jurkat
T1 sequence (Q15116 25-288): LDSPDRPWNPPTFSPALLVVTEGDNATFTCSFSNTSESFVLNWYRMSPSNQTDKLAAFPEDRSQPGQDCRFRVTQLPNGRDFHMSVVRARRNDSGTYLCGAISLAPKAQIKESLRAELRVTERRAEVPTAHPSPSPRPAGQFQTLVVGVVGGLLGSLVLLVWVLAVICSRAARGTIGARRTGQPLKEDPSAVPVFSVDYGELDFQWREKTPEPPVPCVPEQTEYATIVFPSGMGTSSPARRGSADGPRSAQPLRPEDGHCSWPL
Description: Jurkat-PD-1 Cell Binding High-Content Screening Assay (CBA). Format: cell-based. As to conditions: Jurkat cell line over-expressing human PD-1; PE-labeled PD-L1-Ig 20 nM final; read-out: Jurkat hPD1-PDL1 IC50. Summed up: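 First, compound is added to PD-1-expressing Jurkat cells in serum-containing DMEM and left 2 h at 37° C. Next, PE-conjugated PD-L1-Ig is introduced at 20 nM final concentration for 1 hour. Finally, cells are fixed in 4% paraformaldehyde with Hoechst 33342, washed and imaged.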
The term pIC50 denotes the negative decadic logarithm of the IC50, by convention in mol/L. For the molecule `CC(C)C[C@H]1NC(=O)[C@H](CCCN)NC(=O)[C@H](Cc2ccc(O)cc2)NC(=O)[C@H](Cc2ccc(-c3ccccc3)cc2)NC(=O)[C@H](C(C)C)NC(=O)[C@H](Cc2c[nH]c3ccccc23)NC(=O)[C@H](CC(=O)O)NC(=O)[C@H](Cc2ccc(OCC(=O)O)cc2)NC(=O)[C@H](CCCNC(=N)N)NC(=O)CSC[C@@H](C(=O)N[C@@H](CCN)C(=O)NCCCCCCCCCCC(=O)O)NC(=O)[C@H](CCC#N)NC(=O)[C@H](C(C)C)NC(=O)[C@H](CC2CCCCC2)NC(=O)[C@H](CCN)NC1=O` [Compound 3418] ({CH2CO}-RY(Carboxymethyl)DWV[Bip]Y[Orn][dL][Dab][Cha]V[Abu(4-CN)]C[Dab][Aun]-OH; thioether N-14), the pIC50 is 7.44. Turning to `Cc1cccc(C[C@@H]2NC(=O)[C@H](CC(=O)O)NC(=O)[C@H](Cc3ccc(OCC(=O)O)cc3)NC(=O)[C@H](CCCNC(=N)N)NC(=O)CSC[C@@H](C(=O)N[C@@H](CCN)C(=O)NCCCCCCCCCCC(=O)O)NC(=O)[C@H](C(C)O)NC(=O)[C@H](C(C)C)NC(=O)[C@H](CC3CCCCC3)NC(=O)[C@H](CCN)NC(=O)[C@@H](CC(C)C)NC(=O)[C@H](CCCN)NC(=O)[C@H](Cc3ccc(O)cc3)NC(=O)[C@H](Cc3ccc(-c4ccccc4)cc3)NC(=O)[C@H](CCCc3ccccc3)NC2=O)c1` (stereo partly drawn) [Compound 3420] ({CH2CO}-RY(Carboxymethyl)D[Phe(3-Me)][hhPhe][Bip]Y[Orn][dL][Dab][Cha]V[Thr(3ξ)]C[Dab][Aun]-OH; thioether N-14), the pIC50 was 7.22.

Consider `CC(C)C[C@H]1NC(=O)[C@H](CCCN)NC(=O)[C@H](Cc2ccc(O)cc2)NC(=O)[C@H](Cc2ccc(-c3ccccc3)cc2)NC(=O)[C@H](C(C)C)NC(=O)[C@H](Cc2c[nH]c3ccccc23)NC(=O)[C@H](CC(=O)O)NC(=O)[C@H](Cc2ccc(OCC(=O)O)cc2)NC(=O)[C@H](CC(N)=O)NC(=O)CSC[C@@H](C(=O)N[C@@H](CCN)C(=O)NCCCCCCCCCCC(=O)O)NC(=O)[C@H](C(C)O)NC(=O)[C@H](C(C)C)NC(=O)[C@H](CC2CCCCC2)NC(=O)[C@H](CCN)NC1=O` (stereo partly drawn) [Compound 3421] ({CH2CO}-NY(Carboxymethyl)DWV[Bip]Y[Orn][dL][Dab][Cha]V[Thr(3ξ)]C[Dab][Aun]-OH; thioether N-14), for which the pIC50 was 7.47.

`CC(C)C[C@H]1NC(=O)[C@H](CCCN)NC(=O)[C@H](Cc2ccc(O)cc2)NC(=O)[C@H](Cc2ccc(-c3ccccc3)cc2)NC(=O)[C@H](C(C)C)NC(=O)[C@H](Cc2c[nH]c3ccccc23)NC(=O)[C@H](CC(=O)O)NC(=O)[C@H](Cc2ccc(OCC(=O)O)cc2)NC(=O)[C@H](C(C)O)NC(=O)CSC[C@@H](C(=O)N[C@H](CCN)C(=O)NCCCCCCCCCCC(=O)O)NC(=O)[C@H](Cc2ccco2)NC(=O)[C@H](C(C)C)NC(=O)[C@H](CC2CCCCC2)NC(=O)[C@H](CCN)NC1=O` (stereo partly drawn) [Compound 3422] ({CH2CO}-[Thr(3ξ)]Y(Carboxymethyl)DWV[Bip]Y[Orn][dL][Dab][Cha]V[Ala(2-furyl)]C[dDab][Aun]-OH; thioether N-14): the pIC50 was 7.11. In the case of `CC(C)C[C@H]1NC(=O)[C@H](CCCN)NC(=O)[C@H](Cc2ccc(O)cc2)NC(=O)[C@H](Cc2ccc(-c3ccccc3)cc2)NC(=O)[C@H](C(C)C)NC(=O)[C@H](Cc2c[nH]c3ccccc23)NC(=O)[C@H](CC(=O)O)NC(=O)[C@H](Cc2ccc(OCC(=O)O)cc2)NC(=O)[C@H](C(C)O)NC(=O)CSC[C@@H](C(=O)N[C@@H](CCN)C(=O)NCCCCCCCCCCC(=O)O)NC(=O)[C@H](CC2CCOCC2)NC(=O)[C@H](C(C)C)NC(=O)[C@H](CC2CCCCC2)NC(=O)[C@H](CCN)NC1=O` (stereo partly drawn) [Compound 3424] ({CH2CO}-[Thr(3ξ)]Y(Carboxymethyl)DWV[Bip]Y[Orn][dL][Dab][Cha]V[Ala(4-THP)]C[Dab][Aun]-OH; thioether N-14) it was 6.88.

The values above are taken from US20260022142A1, “MACROCYCLIC IMMUNOMODULATORS” (Bristol-Myers Squibb Company, priority 2022, published 2026).
